Experimental findings from PubChem BioAssay (NCI) are described below.

Each structure is given as a SMILES string.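 96-well plates; 48 h exposure; 5 concentrations. Endpoints by linear interpolation between flanking doses. Not reached: highest tested concentration assigned. The concentration for full growth arrest is given as TGI.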

The test system of one assay is 786-0 renal. Put plainly: DTP human tumour cell line panel, 48 h.
In general, TGI refers to the concentration giving total growth inhibition. For `O=C(O)c1ccccc1[Se][Se]c1ccccc1C(=O)O`, the TGI was more than 100 µM.

In the case of `CC(C)=CC(=O)C1c2cccc(O)c2C(=O)c2c(O)cc(C)cc21` (centres undefined), the TGI was found to be 16.1 µM.

Consider `O=C(O)CCc1coc2ccc(O)cc12`, for which the total growth inhibition concentration (TGI) is more than 100 µM.

As for `COC(=O)CC1CCN(C#N)CC1CC[N+](=O)[O-]` (centres undefined), the TGI was more than 100 µM.

As to `Cc1ccc(N=Nc2ccc(N(CCC#N)CCC#N)cc2C)c(Br)c1`, the TGI amounted to 61.5 µM.

With `CC(C)C/C(CC(=O)CCC(=O)Nc1ccccc1[N+](=O)[O-])=N\NC(=O)c1cc2ccccc2cc1O`, the TGI is more than 100 µM.

Regarding `CCOc1ccc(NC(=O)C(=O)CC(=O)c2c[n+](=O)c3cc(C)c(C)cc3n2[O-])cc1`, the concentration for total growth inhibition (TGI) was more than 100 µM.

In turn, `O=CC[C@H]1C(=O)C[C@@H]2CCC[C@@H]21` gave a TGI of more than 100 µM.

Take `O=C(N/C(=C\c1ccc(/C=C(\NC(=O)c2ccccc2)c2nc3cc([N+](=O)[O-])ccc3[nH]2)cc1)c1nc2cc([N+](=O)[O-])ccc2[nH]1)c1ccccc1`: the TGI is more than 100 µM.

`COC(CN1C(=O)c2cccc3cccc(c23)C1=O)OC` came in with a TGI of more than 100 µM.

As for `CCCCCCCCCCCCCCCCCC(CCCCCCCCCCCCCCCCC)OP(=O)(O)O`, the TGI is more than 100 µM.

`COC1(OC)CCC2C1C1CCC(OC)(OC)C21` (centres undefined) had a TGI of more than 50 µM.

The compound `CN1C(=O)C(C)(C)C2(SC(C)(C)C2(C)C)N(C)C1=S` (centres undefined) showed a TGI of more than 100 µM.

On to `COc1cc2c(cc1OC)-c1c3cc(O)ccc3nn[n+]1CC2`, for which the TGI is more than 100 µM.

`C/C(CC(=O)CCC(=O)Nc1cccc(C(F)(F)F)c1)=N\NC(=O)NN` yielded a concentration for total growth inhibition (TGI) of more than 100 µM.

As to `N#CCCN(CCC#N)c1ccc(/C=C2\N=C(c3cc([N+](=O)[O-])ccc3Cl)OC2=O)cc1`, the TGI is more than 100 µM.

As to `O=C(/C=C/c1ccccc1)NC1C=Nc2ccc(Cl)cc2NC1=O` (centres undefined), the TGI was more than 100 µM.

As to `COc1ccccc1C12OC(=O)C1(C)Oc1ccccc1C2=O` (centres undefined), the TGI is more than 100 µM.

`O=C1C2C(C(=O)N1OS(=O)(=O)c1ccccc1)N(Cc1ccccc1)C(=O)N2Cc1ccccc1` (centres undefined) gave a TGI of more than 100 µM.

Regarding `O=C(COc1ccc(Br)cc1Br)N1N=C(c2ccc([N+](=O)[O-])o2)CC1(O)c1ccccc1` (centres undefined), the TGI is 44.1 µM.

Consider `N#CC(c1ccc(Cl)cc1)c1cccc(C(C#N)c2ccc(Cl)cc2)n1` (centres undefined), for which the TGI was more than 100 µM.

As to `O=C1C(=O)N(c2ccc(Cl)cc2Cl)C(=O)C(=O)C1c1nc2ccccc2s1`, the TGI is more than 100 µM.

For the compound `Clc1cc2nsnc2c(Cl)n1`, the TGI amounted to 31.2 µM.

In turn, `N#CC1C(C#N)C2(c3ccccc3)C(c3ccccc3)=NN(c3ccccc3)CC12` (centres undefined) came in with a TGI of more than 100 µM.

Regarding `Cc1nc2ccccc2c(=O)n1-c1ccccc1I`, the TGI is more than 100 µM.

Take `O=C1/C(=C/c2ccccc2)CN(C(=O)C(Cl)(Cl)Cl)C/C1=C\c1ccccc1`: the TGI worked out at 9.42 µM.

Consider `COC1CCC2C(NS(=O)(=O)c3ccc(C)cc3)CCCC2O1` (centres undefined) (tested in a mixture with another compound), for which the TGI was more than 34.5 µM.

`CN(C)C(=N)c1ccccc1` gave a total growth inhibition concentration (TGI) of more than 100 µM.

For `Cc1cc(C)nc(NS(=O)(=O)c2ccc(NC(=O)c3ccc(Cl)c4c(Nc5ccc(S(=O)(=O)Nc6nc(C)cc(C)n6)cc5)c5ccccc5nc34)cc2)n1`, the total growth inhibition concentration (TGI) is 20.4 µM.

On to `CC1=C(C(=O)NCc2ccccc2)C(/C=C/c2ccccc2)C(C(=O)NCc2ccccc2)=C(C)N1`, for which the TGI is more than 100 µM.

Take `O=S1(=O)c2ccccc2NC(c2ccc3ccccc3c2)CC1c1ccccc1F` (centres undefined): the TGI is more than 100 µM.

For a further assay, the system named is A498 renal. In words: DTP human tumour cell line panel, 48 h.
Regarding `O=C(O)c1ccccc1[Se][Se]c1ccccc1C(=O)O`, the TGI was more than 100 µM.

With `CC(C)=CC(=O)C1c2cccc(O)c2C(=O)c2c(O)cc(C)cc21` (centres undefined), the TGI is 37.3 µM.

Compound `O=C(O)CCc1coc2ccc(O)cc12` returned a TGI of more than 100 µM.

`COC(=O)CC1CCN(C#N)CC1CC[N+](=O)[O-]` (centres undefined) registered a TGI of more than 100 µM.

As for `Cc1ccc(N=Nc2ccc(N(CCC#N)CCC#N)cc2C)c(Br)c1`, the TGI was more than 100 µM.

`CCOc1ccc(NC(=O)C(=O)CC(=O)c2c[n+](=O)c3cc(C)c(C)cc3n2[O-])cc1` showed a TGI of more than 100 µM.

In turn, `O=CC[C@H]1C(=O)C[C@@H]2CCC[C@@H]21` returned a TGI of more than 100 µM.

Turning to `O=C(N/C(=C\c1ccc(/C=C(\NC(=O)c2ccccc2)c2nc3cc([N+](=O)[O-])ccc3[nH]2)cc1)c1nc2cc([N+](=O)[O-])ccc2[nH]1)c1ccccc1`, the TGI was more than 100 µM.

The compound `COC(CN1C(=O)c2cccc3cccc(c23)C1=O)OC` gave a TGI of more than 100 µM.

In turn, `CCCCCCCCCCCCCCCCCC(CCCCCCCCCCCCCCCCC)OP(=O)(O)O` gave a TGI of more than 100 µM.

`COC1(OC)CCC2C1C1CCC(OC)(OC)C21` (centres undefined) showed a TGI of more than 50 µM.

Take `C/C(CC(=O)CCC(=O)Nc1cccc(C(F)(F)F)c1)=N\NC(=O)NN`: the TGI is more than 100 µM.

Compound `N#CCCN(CCC#N)c1ccc(/C=C2\N=C(c3cc([N+](=O)[O-])ccc3Cl)OC2=O)cc1` came in with a TGI of more than 100 µM.

For the compound `O=C(/C=C/c1ccccc1)NC1C=Nc2ccc(Cl)cc2NC1=O` (centres undefined), the TGI was more than 100 µM.

Compound `COc1ccccc1C12OC(=O)C1(C)Oc1ccccc1C2=O` (centres undefined) yielded a TGI of more than 100 µM.

`O=C1C2C(C(=O)N1OS(=O)(=O)c1ccccc1)N(Cc1ccccc1)C(=O)N2Cc1ccccc1` (centres undefined) yielded a TGI of more than 100 µM.

Turning to `O=C(COc1ccc(Br)cc1Br)N1N=C(c2ccc([N+](=O)[O-])o2)CC1(O)c1ccccc1` (centres undefined), the TGI came to 23.8 µM.

The compound `N#CC(c1ccc(Cl)cc1)c1cccc(C(C#N)c2ccc(Cl)cc2)n1` (centres undefined) gave a TGI of 10.9 µM.

On to `O=C1C(=O)N(c2ccc(Cl)cc2Cl)C(=O)C(=O)C1c1nc2ccccc2s1`, for which the TGI was more than 100 µM.

On to `Clc1cc2nsnc2c(Cl)n1`, for which the TGI was more than 100 µM.

As for `N#CC1C(C#N)C2(c3ccccc3)C(c3ccccc3)=NN(c3ccccc3)CC12` (centres undefined), the total growth inhibition concentration (TGI) was more than 100 µM.

Consider `Cc1nc2ccccc2c(=O)n1-c1ccccc1I`, for which the concentration for total growth inhibition (TGI) was more than 100 µM.

Compound `O=C1/C(=C/c2ccccc2)CN(C(=O)C(Cl)(Cl)Cl)C/C1=C\c1ccccc1` returned a TGI of 13.7 µM.

The compound `COC1CCC2C(NS(=O)(=O)c3ccc(C)cc3)CCCC2O1` (centres undefined) (tested in a mixture with another compound) showed a TGI of more than 34.5 µM.

The compound `Cc1cc(C)nc(NS(=O)(=O)c2ccc(NC(=O)c3ccc(Cl)c4c(Nc5ccc(S(=O)(=O)Nc6nc(C)cc(C)n6)cc5)c5ccccc5nc34)cc2)n1` registered a TGI of 57.4 µM.

In turn, `CC1=C(C(=O)NCc2ccccc2)C(/C=C/c2ccccc2)C(C(=O)NCc2ccccc2)=C(C)N1` gave a TGI of more than 100 µM.

Consider `O=S1(=O)c2ccccc2NC(c2ccc3ccccc3c2)CC1c1ccccc1F` (centres undefined), for which the TGI was more than 100 µM.

The subject of a further assay is EKVX NSCLC. In words: DTP human tumour cell line panel, 48 h.
The compound `CC(C)=CC(=O)C1c2cccc(O)c2C(=O)c2c(O)cc(C)cc21` (centres undefined) came in with a TGI of 31.5 µM.

The compound `O=C(O)CCc1coc2ccc(O)cc12` had a TGI of more than 100 µM.

Consider `Cc1ccc(N=Nc2ccc(N(CCC#N)CCC#N)cc2C)c(Br)c1`, for which the concentration for total growth inhibition (TGI) is more than 100 µM.

For the compound `CC(C)C/C(CC(=O)CCC(=O)Nc1ccccc1[N+](=O)[O-])=N\NC(=O)c1cc2ccccc2cc1O`, the TGI was more than 100 µM.

As to `CCOc1ccc(NC(=O)C(=O)CC(=O)c2c[n+](=O)c3cc(C)c(C)cc3n2[O-])cc1`, the concentration for total growth inhibition (TGI) was more than 100 µM.

Consider `O=CC[C@H]1C(=O)C[C@@H]2CCC[C@@H]21`, for which the TGI was more than 100 µM.
